The source of these data is patent publication US20090197934A1, “IMIDAZOLINYLMETHYL ARYL SULFONAMIDE” (priority 2008, published 2009).

Series [1] deals with T1, alpha-1A adrenoceptors (Homo sapiens, UniProt P35348).
T1 sequence (P35348 1-466): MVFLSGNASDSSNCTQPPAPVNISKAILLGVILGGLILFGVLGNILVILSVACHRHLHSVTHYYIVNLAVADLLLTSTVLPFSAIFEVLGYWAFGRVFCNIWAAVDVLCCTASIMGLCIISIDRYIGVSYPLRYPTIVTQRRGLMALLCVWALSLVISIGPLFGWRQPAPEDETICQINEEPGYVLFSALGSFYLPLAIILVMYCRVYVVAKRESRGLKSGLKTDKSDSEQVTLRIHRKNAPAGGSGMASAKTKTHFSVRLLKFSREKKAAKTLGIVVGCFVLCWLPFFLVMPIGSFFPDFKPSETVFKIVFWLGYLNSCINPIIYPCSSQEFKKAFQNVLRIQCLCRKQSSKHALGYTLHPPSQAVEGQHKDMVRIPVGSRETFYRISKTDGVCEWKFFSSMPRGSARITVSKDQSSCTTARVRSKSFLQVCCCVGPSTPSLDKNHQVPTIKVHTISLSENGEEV
The series is described as follows: alpha-1A adrenoceptor partial agonist activity (intrinsic activity and pEC50). It counts as cell-based.

The subject of series [2] is Female Yucatan Micro-Swine. The series can be described thus: Conscious Pig Model (IUP, MAP and HR during iv infusion). The series is classed as in vivo. As for the experimental part:
In general, IUP is the intraurethral pressure and is measured as the 2 minute mean from the first peak of the urethral response (FIG. 1). MAP is the mean arterial blood pressure and is measured as the average blood pressure during the 2 minute section where IUP is measured. The durability is the slope of the IUP response in mmHg/min and is calculated immediately after the 2 minute IUP response for 5 minutes (2-7 minutes post the first peak) for the top 3 doses.
Sling Training: Female Yucatan Micro-Swine were trained to stay in a sling for up to 4 hours. Swine were exposed to progressively longer sling durations per IACUC sling-training guideline.
Surgical Instrumentation: Female Yucatan Micro-swine were instrumented with a telemetry device with both pressure and ECG monitoring capabilities (Data Sciences International St Paul Minn.). In addition, a Bardport low profile titanium VAP was placed subcutanteously for blood sampling. All devices were implanted by the surgical veterinarian at Roche Palo Alto. Briefly, the telemetry probe body was placed subcutaneously in the cervical region. The intra-arterial pressure catheter was advanced via the superficial cervical artery into the subclavian artery for blood pressure measurement. The ECG leads were placed intra-muscularly: one in the intercostal muscle between the T8-T10 regions on the left side, and the other in the intercostal muscles between the T1-T3 regions on the right side. The VAP was placed subcutaneously in the neck region, with the catheter advanced into the jugular vein. Swine were allowed to fully recover from the surgery (typically 10 days). […]
Experiment: After the swine was fully awake and stable (usually approximately 1 hour post wake up), baseline blood pressure, IUP, and heart rate parameters were determined. […]
Data Generating and Analysis Systems: Cardiovascular readings were generated by the TL11M3-D70-PCP (Data Sciences International, St. Paul, Minn.) telemetry device and associated hardware. […] IUP was monitored by a solid state catheter connected to a TA6000 Polygraph (Data Sciences International, St. Paul, Minn.). […]

For `CS(=O)(=O)Nc1cc(F)c(CC2=NCCN2)c(Br)c1Cl` [Formula I, N-[3-Bromo-2-chloro-4-(4,5-dihydro-1H-imidazol-2-ylmethyl)-5-fluoro-phenyl]-methanesulfonamide], the “intrinsic activity, or efficacy, as a partial agonist” value in series [1] (ideally between 0.35 to 0.60) came to 0.45. Besides, in series [1] (read-out: affinity, or pEC50 value (converted)), the EC50 was 0.316 µM. Besides, in series [2], the “maximum arterial blood pressure effect” value was “low” and the “selectivity for enhancement of intraurethral pressure (IUP) over blood pressure (MAP)” value is “selectivity for enhancement of intraurethral pressure (IUP) over blood pressure (MAP)”. Besides, the “durability of IUP response over time” value in series [2] (compared to analogue compound lacking the 3-bromo and 5-fluoro substituents (FIG. 1b vs FIG. 1c)) is listed as “unexpectedly increased durability of IUP response over time”.
